ChEMBL document CHEMBL2086224, “The design, synthesis, and biological evaluation of potent receptor tyrosine kinase inhibitors” (Bioorg Med Chem Lett, 2012)
One block for each compound: values may come before it.

Legend:
[1] = AUC (0 to infinity) in rat at 10 mg/kg, po; assay type: ADME, organism-based; set-up: time infinity, dose 10 mg/kg, route oral; details: plasma
[2] = Half life in rat at 10 mg/kg, po; assay type: ADME, organism-based; set-up: dose 10 mg/kg, route oral; details: in vivo
[3] = Oral bioavailability in rat at 10 mg/kg; assay type: ADME, organism-based; details: in vivo
[4] = Oral bioavailability in rat; assay type: ADME, organism-based; details: in vivo
[5] = Clearance in rat; assay type: ADME, organism-based; details: in vivo
[6] = Plasma concentration in VEGF stimulated-mouse at 30 mg/kg, po after 4 hrs; assay type: ADME, organism-based; set-up: dose 30 mg/kg, route oral
[7] = Plasma concentration in athymic nu/nu mouse bearing human HT-29 tumor at 10 to 100 mg/kg, po administered QD for 14 days; assay type: ADME, organism-based; set-up: dose 10-100 mg/kg, route oral
[8] = Drug uptake in VEGF-stimulated mouse lung at 30 mg/kg, po after 4 hrs; assay type: ADME, organism-based; set-up: dose 30 mg/kg, route oral; details: read-out: Drug uptake
[9] = Plasma concentration in VEGF stimulated-mouse at 10 mg/kg, po after 4 hrs; assay type: ADME, organism-based; set-up: dose 10 mg/kg, route oral
[10] = Plasma concentration in VEGF stimulated-mouse at 1 mg/kg, po after 4 hrs; assay type: ADME, organism-based; set-up: dose 1 mg/kg, route oral
[11] = Drug uptake in human MDA-MB-231 cells xenografted mouse tumor at 1 mg/kg; assay type: ADME, organism-based, Neoplasm; set-up: dose 1 mg/kg; details: in vivo, BLD = below limit of detection
Plasma [12] = test: Plasma concentration in human MDA-MB-231 cells xenografted mouse at 100 mg/kg; assay type: ADME, organism-based; set-up: dose 100 mg/kg; details: in vivo
Plasma [13] = test: Plasma concentration in human MDA-MB-231 cells xenografted mouse at 60 mg/kg; assay type: ADME, organism-based; set-up: dose 60 mg/kg; details: in vivo
Plasma [14] = test: Plasma concentration in human MDA-MB-231 cells xenografted mouse at 1 mg/kg; assay type: ADME, organism-based; set-up: dose 1 mg/kg; details: in vivo, BLD = below limit of detection
[15] = Drug uptake in human MDA-MB-231 cells xenografted mouse tumor at 3 mg/kg; assay type: ADME, organism-based, Neoplasm; set-up: dose 3 mg/kg; details: in vivo, BLD = below limit of detection
Plasma [16] = test: Plasma concentration in human MDA-MB-231 cells xenografted mouse at 10 mg/kg; assay type: ADME, organism-based; set-up: dose 10 mg/kg; details: in vivo
[17] = Plasma concentration in VEGF stimulated-mouse at 60 mg/kg, po after 4 hrs; assay type: ADME, organism-based; set-up: dose 60 mg/kg, route oral
[18] = Drug uptake in human MDA-MB-231 cells xenografted mouse tumor at 100 mg/kg; assay type: ADME, organism-based, Neoplasm; set-up: dose 100 mg/kg; details: in vivo, read-out: Drug uptake
[19] = Drug uptake in VEGF-stimulated mouse lung at 60 mg/kg, po after 4 hrs; assay type: ADME, organism-based; set-up: dose 60 mg/kg, route oral; details: read-out: Drug uptake
[20] = Drug uptake in VEGF-stimulated mouse lung at 100 mg/kg, po after 4 hrs; assay type: ADME, organism-based; set-up: dose 100 mg/kg, route oral; details: read-out: Drug uptake
Lung = test: Drug uptake in VEGF-stimulated mouse lung at 1 mg/kg, po after 4 hrs; assay type: ADME, organism-based; set-up: dose 1 mg/kg, route oral; details: in vivo, BLD = below limit of detection
[21] = Drug uptake in VEGF-stimulated mouse lung at 10 mg/kg, po after 4 hrs; assay type: ADME, organism-based; set-up: dose 10 mg/kg, route oral; details: read-out: Drug uptake
[22] = Drug uptake in VEGF-stimulated mouse lung at 3 mg/kg, po after 4 hrs; assay type: ADME, organism-based; set-up: dose 3 mg/kg, route oral; details: read-out: Drug uptake
Plasma [23] = test: Plasma concentration in human MDA-MB-231 cells xenografted mouse at 30 mg/kg; assay type: ADME, organism-based; set-up: dose 30 mg/kg; details: in vivo
[24] = Drug uptake in human MDA-MB-231 cells xenografted mouse tumor at 30 mg/kg; assay type: ADME, organism-based, Neoplasm; set-up: dose 30 mg/kg; details: in vivo, read-out: Drug uptake
[25] = Plasma concentration in athymic nu/nu mouse bearing human MDA-MB-231 tumor at 10 to 100 mg/kg, po administered QD for 14 days; assay type: ADME, organism-based; set-up: dose 10-100 mg/kg, route oral
[26] = Drug uptake in human MDA-MB-231 cells xenografted mouse tumor at 10 mg/kg; assay type: ADME, organism-based, Neoplasm; set-up: dose 10 mg/kg; details: in vivo, read-out: Drug uptake
Plasma [27] = test: Plasma concentration in human MDA-MB-231 cells xenografted mouse at 3 mg/kg; assay type: ADME, organism-based; set-up: dose 3 mg/kg; details: in vivo
[28] = Plasma concentration in VEGF stimulated-mouse at 100 mg/kg, po after 4 hrs; assay type: ADME, organism-based; set-up: dose 100 mg/kg, route oral
[29] = Permeability across MDCK cells; assay type: ADME, cell-based, Canis lupus familiaris; details: dog, read-out: permeability
[30] = Plasma concentration in VEGF stimulated-mouse at 3 mg/kg, po after 4 hrs; assay type: ADME, organism-based; set-up: dose 3 mg/kg, route oral
[31] = Drug uptake in human MDA-MB-231 cells xenografted mouse tumor at 60 mg/kg; assay type: ADME, organism-based, Neoplasm; set-up: dose 60 mg/kg; details: in vivo, read-out: Drug uptake

AUC(0-inf) [1]: 1.44 µM·h
half-life [2]: 5.7 h
bioavailability [3]: 37%
Compound: CCN1CCC(Nc2ccc3c(c2)C(=C(c2ccccc2)c2nc4ccccc4[nH]2)C(=O)N3)CC1 (mixture of isomers)

AUC(0-inf) [1]: 2.36 µM·h
half-life [2]: 4.6 h
bioavailability [3]: 55%
Compound: CCN1CCC(Nc2ccc3c(c2)C(=C(c2ccc(C)cc2)c2nc4ccccc4[nH]2)C(=O)N3)CC1 (mixture of isomers)

bioavailability [4]: 19%
clearance [5]: 108 mL/min/kg
Compound: CCN1CCC(Nc2ccc3c(c2)C(=C(c2ccccc2)c2nc4cc(OC)ccc4[nH]2)C(=O)N3)CC1 (mixture of isomers)

AUC(0-inf) [1]: 3.14 µM·h
half-life [2]: 3.8 h
bioavailability [3]: 72%
Compound: CCN1CCC(Nc2ccc3c(c2)C(=C(c2cc(F)cc(F)c2)c2nc4ccccc4[nH]2)C(=O)N3)CC1 (mixture of isomers)

AUC(0-inf) [1]: 0.33 µM·h
half-life [2]: 7.5 h
bioavailability [3]: 27%
Compound: CCN1CCC(Nc2ccc3c(c2)C(=C(c2ccc(OC)cc2)c2nc4ccccc4[nH]2)C(=O)N3)CC1 (mixture of isomers)

AUC(0-inf) [1]: 1.99 µM·h
half-life [2]: 4.4 h
bioavailability [3]: 63%
Compound: CCN1CCC(Nc2ccc3c(c2)C(=C(c2cccc(F)c2)c2nc4ccccc4[nH]2)C(=O)N3)CC1 (mixture of isomers)

Further lines, the compound ahead of its results:

Compound: CCN1CCC(Nc2ccc3c(c2)C(=C(c2cc(F)cc(F)c2)c2nc(C)c[nH]2)C(=O)N3)CC1 (mixture of isomers)
AUC(0-inf) [1]: 5.19 µM·h
half-life [2]: 7.2 h
bioavailability [3]: 59%

Compound: CCN1CCC(Nc2ccc3c(c2)C(=C(c2cccc(F)c2)c2ncc(C)[nH]2)C(=O)N3)CC1 (mixture of isomers)
AUC(0-inf) [1]: 1.9 µM·h
half-life [2]: 4.6 h
bioavailability [3]: 20%

Compound: CCN1CCC(Nc2ccc3c(c2)C(=C(c2nc(C)c[nH]2)c2ccccc2F)C(=O)N3)CC1 (mixture of isomers)
AUC(0-inf) [1]: 1.03 µM·h
half-life [2]: 2.3 h
bioavailability [3]: 25%

Compound: CCN1CCC(Nc2ccc3c(c2)C(=C(c2ccc(Cl)cc2)c2ncc[nH]2)C(=O)N3)CC1 (mixture of isomers)
concentration at 4 h [6]: 10 nM
concentration at 336 h [7]: 1000 nM
concentration at 4 h [8]: 470 nM
concentration at 4 h [9]: 20 nM
AUC(0-inf) [1]: 5.04 µM·h
concentration at 4 h [10]: 4 nM
Drug uptake [11]: BLD
concentration (Plasma [12]): 800 nM
concentration (Plasma [13]): 260 nM
Cp (Plasma [14]): BLD
Drug uptake [15]: BLD
concentration (Plasma [16]): 40 nM
concentration at 4 h [17]: 10 nM
half-life [2]: 10.7 h
concentration [18]: 8800 nM
concentration at 4 h [19]: 810 nM
bioavailability [3]: 63%
concentration at 4 h [20]: 3550 nM
Drug uptake (Lung): BLD
concentration at 4 h [21]: 280 nM
concentration at 4 h [22]: 70 nM
concentration (Plasma [23]): 200 nM
concentration [24]: 1400 nM
concentration at 336 h [25]: 1000 nM
concentration [26]: 340 nM
concentration (Plasma [27]): 10 nM
concentration at 4 h [28]: 620 nM
Papp [29]: 6.8 ×10⁻⁶ cm/s
concentration at 4 h [30]: 10 nM
concentration [31]: 3600 nM

Compound: CCN1CCC(Nc2ccc3c(c2)C(=C(c2cccc(F)c2)c2ncc[nH]2)C(=O)N3)CC1 (mixture of isomers)
AUC(0-inf) [1]: 1.12 µM·h
half-life [2]: 5.4 h
bioavailability [3]: 15%

Compound: CCN1CCC(Nc2ccc3c(c2)C(=C(c2ccccc2)c2ncc[nH]2)C(=O)N3)CC1 (mixture of isomers)
AUC(0-inf) [1]: 1.5 µM·h
half-life [2]: 11.6 h
bioavailability [3]: 16%
